Data from patent publication US9090609B2, “Benzyl-substituted carbamates and use thereof” (BAYER INTELLECTUAL PROPERTY GMBH, priority 2010, dated 2015).

What was measured:
aorta rings = test: Vasorelaxant action in vitro (phenylephrine-contracted aorta rings); settings: Oryctolagus cuniculus; concentration needed to reduce the phenylephrine contraction of rabbit aorta rings by 50%
Procedure: B-1. Vasorelaxant Action In Vitro
Rabbits are stunned by a blow to the neck and exsanguinated. The aorta is removed, freed from adhering tissue and divided into rings of a width of 1.5 mm. The rings are placed individually under an initial tension in 5 ml organ baths with Krebs-Henseleit solution which is at 37° C., is gassed with carbogen and has the following composition (in each case mM): sodium chloride 119; potassium chloride: 4.8; calcium chloride dihydrate: 1; magnesium sulfate heptahydrate: 1.4; potassium dihydrogenphosphate: 1.2; sodium bicarbonate: 25; glucose: 10. The contractile force is determined with Statham UC2 cells, amplified and digitalized using A/D transducers (DAS 1802 HC, Keithley Instruments Munich), and recorded in parallel on linear recorders. To obtain a contraction, phenylephrine is added to the bath cumulatively in increasing concentration. After several control cycles, the substance to be investigated is added in each further run in increasing dosage in each case, and the height of the contraction achieved is compared with the height of the contraction reached in the last preceding run. This is used to calculate the concentration needed to reduce the magnitude of the control value by 50% (IC50 value). The standard administration volume is 5 μl; the DMSO content in the bath solution corresponds to 0.1%.

[1] = target: T1, recombinant guanylate cyclase reporter cell line (Rattus norvegicus, UniProt P19686+P20595); test: Effect on a recombinant guanylate cyclase reporter cell line; format: cell-based
T1 construct: expressed in transfected cells; host or cells: recombinant reporter cell line
T1 sequence (P20595 1-619): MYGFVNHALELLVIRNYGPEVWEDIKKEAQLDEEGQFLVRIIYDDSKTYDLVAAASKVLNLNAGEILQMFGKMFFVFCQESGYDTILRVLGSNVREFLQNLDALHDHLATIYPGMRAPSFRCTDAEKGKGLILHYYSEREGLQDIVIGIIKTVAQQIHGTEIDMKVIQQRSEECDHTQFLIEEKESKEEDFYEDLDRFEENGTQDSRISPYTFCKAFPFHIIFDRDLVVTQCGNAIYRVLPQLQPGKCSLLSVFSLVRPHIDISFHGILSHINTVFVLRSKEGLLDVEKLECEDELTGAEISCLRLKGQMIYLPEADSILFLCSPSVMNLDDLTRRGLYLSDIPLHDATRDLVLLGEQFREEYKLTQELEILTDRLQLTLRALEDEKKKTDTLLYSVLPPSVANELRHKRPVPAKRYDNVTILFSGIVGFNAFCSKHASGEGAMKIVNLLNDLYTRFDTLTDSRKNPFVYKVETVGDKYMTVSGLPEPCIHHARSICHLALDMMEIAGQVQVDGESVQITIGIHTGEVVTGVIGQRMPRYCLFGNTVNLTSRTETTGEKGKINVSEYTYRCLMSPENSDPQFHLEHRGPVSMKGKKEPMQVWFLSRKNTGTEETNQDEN
T1 sequence (P19686 1-690): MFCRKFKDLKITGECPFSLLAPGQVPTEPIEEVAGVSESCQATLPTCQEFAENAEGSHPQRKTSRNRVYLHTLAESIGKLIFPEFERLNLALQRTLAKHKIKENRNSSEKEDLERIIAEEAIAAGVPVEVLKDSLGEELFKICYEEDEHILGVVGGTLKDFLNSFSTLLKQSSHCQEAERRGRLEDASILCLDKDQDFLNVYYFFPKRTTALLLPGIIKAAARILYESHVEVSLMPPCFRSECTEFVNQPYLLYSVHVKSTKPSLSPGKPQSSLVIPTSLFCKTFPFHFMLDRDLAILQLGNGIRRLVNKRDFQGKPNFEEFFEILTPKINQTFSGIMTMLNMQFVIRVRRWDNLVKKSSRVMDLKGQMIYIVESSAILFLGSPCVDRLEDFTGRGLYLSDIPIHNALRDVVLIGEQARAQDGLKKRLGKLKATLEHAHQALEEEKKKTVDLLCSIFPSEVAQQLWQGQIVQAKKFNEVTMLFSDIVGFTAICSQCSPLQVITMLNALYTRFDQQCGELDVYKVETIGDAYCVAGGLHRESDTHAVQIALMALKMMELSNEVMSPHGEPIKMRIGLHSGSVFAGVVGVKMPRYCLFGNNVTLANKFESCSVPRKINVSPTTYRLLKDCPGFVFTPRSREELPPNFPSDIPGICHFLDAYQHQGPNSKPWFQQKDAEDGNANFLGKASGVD
Procedure: B-2. Effect on a Recombinant Guanylate Cyclase Reporter Cell Line
The cellular activity of the compounds according to the invention is determined using a recombinant guanylate cyclase reporter cell line, as described in F. Wunder et al., Anal. Biochem. 339, 104-112 (2005).

IC50 (aorta rings) [nM] | MEC (minimum effective concentration) [1] [µM] | Structure (SMILES)
0.705 | 0.3 | COC(=O)N(Cc1ccccc1)c1cnc(-n2nc(Cc3ccccc3F)c3ncccc32)nc1N [Example 2, Methyl {4-amino-2-[3-(2-fluorobenzyl)-1H-pyrazolo[4,3-b]pyridin−1-yl]pyrimidin-5-yl}benzylcarbamate]
0.359 | 0.1 | COC(=O)N(Cc1ccc(F)cc1)c1c(N)nc(-n2nc(Cc3ccccc3F)c3ncccc32)nc1N [Example 4, Methyl {4,6-diamino-2-[3-(2-fluorobenzyl)-1H-pyrazolo[4,3-b]pyridin-1-yl]pyrimidin-5-yl}(4-fluorobenzyl)carbamate]
0.154 |  | COC(=O)N(Cc1ccccc1)c1c(N)nc(-n2nc(Cc3ccccc3F)c3ncc(F)cc32)nc1N [Example 8, Methyl benzyl{4,6-diamino-2-[6-fluoro-3-(2-fluorobenzyl)-1H-pyrazolo[4,3-b]pyridin-1-yl]pyrimidin-5-yl}carbamate]
0.399 | 0.1 | COC(=O)N(Cc1ccccc1F)c1c(N)nc(-n2nc(Cc3ccccc3F)c3ncccc32)nc1N [Example 3, Methyl {4,6-diamino-2-[3-(2-fluorobenzyl)-1H-pyrazolo[4,3-b]pyridin-1-yl]pyrimidin-5-yl}(2-fluorobenzyl)carbamate]
0.745 | 0.1 | CC(C)OC(=O)N(Cc1ccccc1)c1c(N)nc(-n2nc(Cc3ccccc3F)c3ncc(F)cc32)nc1N [Example 6, Isopropyl benzyl{4,6-diamino-2-[6-fluoro-3-(2-fluorobenzyl)-1H-pyrazolo[4,3-b]pyridin-1-yl]pyrimidin-5-yl}carbamate]
0.185 | 0.1 | COC(=O)N(Cc1ccccc1)c1c(N)nc(-n2nc(Cc3ccccc3F)c3ncccc32)nc1N [Example 5, Methyl benzyl{4,6-diamino-2-[3-(2-fluorobenzyl)-1H-pyrazolo[4,3-b]pyridin-1-yl]pyrimidin-5-yl}carbamate]
